# Columns and labels:
# [1] = format: physicochemical
# Experimental: Determination of aqueous solubility/dispersibility. 30.13 mg of 3 was added to 1 mL of USP-purified water. The sample was rotated for 2 hours, then centrifuged for 5 minutes. […] A 125-μL aliquot of the solution was then diluted to 25 mL. The sample was analyzed by UV/Vis spectroscopy at 436 nm, and the absorbance was compared to a standard curve compiled from 4 standards of known concentration.
# The sample was rotated for 2 hours, then centrifuged for 5 minutes. […] A 125-μL aliquot of the solution was then diluted to 25 mL. The sample was analyzed by UV/Vis spectroscopy at 411 nm, and the absorbance was compared to a standard curve compiled from 4 standards of known concentration.
# superoxide anion = assay: Direct superoxide anion scavenging by EPR spectroscopy (DEPMPO spin-trap) in PMA-stimulated isolated human neutrophils; format: cell-based
# Experimental: Leukocyte Isolation and Preparation. Human polymorphonuclear leukocytes (PMNs) were isolated from freshly sampled venous blood of a single volunteer by Percoll density gradient centrifugation as described previously. Briefly, each 10 mL of whole blood was mixed with 0.8 mL of 0.1 M EDTA and 25 mL of saline. The diluted blood was then layered over 9 mL of Percoll at a specific density of 1.080 g/mL. After centrifugation at 400×g for 20 min at 20° C., the plasma, mononuclear cell, and Percoll layers were removed. Erythrocytes were subsequently lysed by addition of 18 mL of ice-cold water for 30 s, followed by 2 mL of 10× PIPES buffer (25 mM PIPES, 110 mM NaCl, and 5 mM KCl, titrated to pH 7.4 with NaOH). Cells were then pelleted at 4° C., the supernatant was decanted, and the procedure was repeated. After the second hypotonic cell lysis, cells were washed twice with PAG buffer [PIPES buffer containing 0.003% human serum albumin (HSA) and 0.1% glucose]. Afterward, PMNs were counted by light microscopy on a hemocytometer. The isolation yielded PMNs with a purity of >95%. The final pellet was then suspended in PAG-CM buffer (PAG buffer with 1 mM CaCl2 and 1 mM MgCl2). EPR Measurements. All EPR measurements were performed using a Bruker ER 300 EPR spectrometer operating at X-band with a TM110 cavity as previously described. The microwave frequency was measured with a Model 575 microwave counter (EIP Microwave, Inc., San Jose, Calif.). To measure superoxide anion (O2) generation from phorbol-ester (PMA)-stimulated PMNs, EPR spin-trapping studies were performed using the spin trap DEPMPO (Oxis, Portland, Oreg.) at 10 mM. 1×10^6 PMNs were stimulated with PMA (1 ng/mL) and loaded into capillary tubes for EPR measurements. To determine the radical scavenging ability of 3 and 9 in aqueous and ethanolic formulations, PMNs were pre-incubated for 5 minutes with test compound, followed by PMA stimulation.
# Instrument settings used in the spin-trapping experiments were as follows: modulation amplitude, 0.32 G; time constant, 0.16 s; scan time, 60 s; modulation frequency, 100 kHz; microwave power, 20 milliwatts; and microwave frequency, 9.76 GHz. The samples were placed in a quartz EPR flat cell, and spectra were recorded. The component signals in the spectra were identified and quantified as reported previously.
# [2] = biological target: human serum albumin (HSA) (Homo sapiens, UniProt P02768); assay: Plasma-protein binding studies in vitro
# human serum albumin (HSA), sequence (P02768 25-609): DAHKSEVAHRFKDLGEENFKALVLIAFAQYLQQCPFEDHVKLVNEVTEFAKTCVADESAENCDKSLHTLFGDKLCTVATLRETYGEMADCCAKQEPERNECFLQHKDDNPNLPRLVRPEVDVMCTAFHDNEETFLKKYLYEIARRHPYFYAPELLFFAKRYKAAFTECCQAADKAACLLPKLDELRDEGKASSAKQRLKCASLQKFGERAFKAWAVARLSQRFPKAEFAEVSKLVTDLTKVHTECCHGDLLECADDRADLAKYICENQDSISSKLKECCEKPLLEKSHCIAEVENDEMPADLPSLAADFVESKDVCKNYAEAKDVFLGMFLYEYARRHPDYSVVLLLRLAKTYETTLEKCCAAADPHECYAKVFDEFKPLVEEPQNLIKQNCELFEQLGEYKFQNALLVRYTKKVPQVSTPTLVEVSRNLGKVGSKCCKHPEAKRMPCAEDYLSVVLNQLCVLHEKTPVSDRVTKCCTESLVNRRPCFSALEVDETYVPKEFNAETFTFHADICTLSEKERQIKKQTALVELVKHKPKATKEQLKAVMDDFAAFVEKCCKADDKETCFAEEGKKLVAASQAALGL
compound,measurement,setting,value
"CC1=C(/C=C/C(C)=C/C=C/C(C)=C/C=C/C=C(C)/C=C/C=C(C)/C=C/C2=C(C)C(=O)[C@@H](O)CC2(C)C)C(C)(C)C[C@H](O)C1=O [astaxanthin, reference compound]",water solubility,[1],insoluble in water
"β,ε-carotenyl 3,3′-disuccinate sodium salt [compound 3]",Aqueous dispersibility (concentration of supernatant),[1]; 2 h,2.85 mg/mL
same,Mean (% inhibition) of superoxide anion signal,"superoxide anion; 0.1 mM, 40% EtOH (EtOH vehicle alone 5%), listed as Lutein Disuccinate Sodium Salt, sodium salt",5.0%
same,Mean (% inhibition) of superoxide anion signal,"superoxide anion; 0.1 mM, 40% EtOH (EtOH vehicle alone 5%), listed as disodium disuccinate derivative of natural source lutein, sodium salt",did not significantly increase scavenging
same,Mean (% inhibition) of superoxide anion signal,"superoxide anion; 0.1 mM, Water",0%
same,Mean (% inhibition) of superoxide anion signal,"superoxide anion; 1.0 mM, Water",13.0%
same,Mean (% inhibition) of superoxide anion signal,"superoxide anion; 3.0 mM, Water",61.7%
same,Mean (% inhibition) of superoxide anion signal,"superoxide anion; 5.0 mM, Water, listed as Lutein Disuccinate Sodium Salt, sodium salt",74.7%
same,Mean (% inhibition) of superoxide anion signal,"superoxide anion; 5.0 mM, Water, listed as disodium disuccinate derivative of natural source lutein, sodium salt",~75%
same,Mean (% inhibition) of superoxide anion signal,"superoxide anion; 5.0 mM, Water, listed as disuccinate lutein sodium salt, sodium salt",75%
"CC(C=CC=C(C)C=CC1=C(C)C(=O)C(OC(=O)CCC(=O)[O-])CC1(C)C)=CC=CC=C(C)C=CC=C(C)C=CC1=C(C)C(=O)C(OC(=O)CCC(=O)[O-])CC1(C)C.[Na+].[Na+] [meso-(3R,3′S)-disodium disuccinate astaxanthin]",binding to human serum albumin,[2],bound immediately and preferentially to human serum albumin (HSA)
"3,3′-Diphosphoryloxy-β,ε-carotene sodium salt [compound 9]",increase in dispersibility of diphosphate salt over disuccinate sodium salt,[1],> 10 fold
same,Mean (% inhibition) of superoxide anion signal,"superoxide anion; 0.1 mM, 40% EtOH (EtOH vehicle alone 5%), listed as Lutein Diphosphate Sodium Salt, sodium salt",18.0%
same,Mean (% inhibition) of superoxide anion signal,"superoxide anion; 0.1 mM, 40% EtOH (EtOH vehicle alone 5%), listed as disodium diphosphate derivative of natural source lutein, sodium salt",18%
same,Mean (% inhibition) of superoxide anion signal,"superoxide anion; 0.1 mM, Water, listed as disodium diphosphate derivative of natural source lutein, sodium salt",0%
same,Mean (% inhibition) of superoxide anion signal,"superoxide anion; 1.0 mM, Water",9.3%
same,Mean (% inhibition) of superoxide anion signal,"superoxide anion; 3.0 mM, Water",72.3%
same,Mean (% inhibition) of superoxide anion signal,"superoxide anion; 5.0 mM, Water, listed as Lutein Diphosphate Sodium Salt, sodium salt",91.0%
same,Mean (% inhibition) of superoxide anion signal,"superoxide anion; 5.0 mM, Water, listed as disodium diphosphate derivative of natural source lutein, sodium salt",more than 90%
